Results taken from article PMC11240139, “Exploring the antitumor potential of novel quinoline derivatives via tubulin polymerization inhibition in breast cancer; design, synthesis and molecular docking” (RSC Advances, 2024).

Legend:
[1] = system: NCI-H226 (non-small cell lung cancer); experiment: NCI-60 SRB cytotoxicity screen; format: cell-based; details: Homo sapiens; NCI-H226, single dose 10 μM; read-out: growth inhibition (GI%)
SK-MEL-28 (melanoma) = experiment: NCI-60 SRB cytotoxicity screen; format: cell-based; details: Homo sapiens; SK-MEL-28, single dose 10 μM; read-out: growth inhibition (GI%)
UO-31 (renal cancer) = experiment: NCI-60 SRB cytotoxicity screen; format: cell-based; details: Homo sapiens; UO-31, single dose 10 μM; read-out: growth inhibition (GI%)
[2] = system: HOP-92 (non-small cell lung cancer); experiment: NCI-60 SRB cytotoxicity screen; format: cell-based; details: Homo sapiens; HOP-92, single dose 10 μM; read-out: growth inhibition (GI%)
[3] = system: NCI-H522 (non-small cell lung cancer); experiment: NCI-60 SRB cytotoxicity screen; format: cell-based; details: Homo sapiens; NCI-H522, single dose 10 μM; read-out: growth inhibition (GI%)
[4] = system: A549/ATCC (non-small cell lung cancer); experiment: NCI-60 SRB cytotoxicity screen; format: cell-based; details: Homo sapiens, single dose 10 μM, read-out: growth inhibition (GI%)
KM12 (colon cancer) = experiment: NCI-60 SRB cytotoxicity screen; format: cell-based; details: Homo sapiens; KM12, single dose 10 μM; read-out: growth inhibition (GI%)
PC-3 (prostate cancer) = experiment: NCI-60 SRB cytotoxicity screen; format: cell-based; details: PC-3, single dose 10 μM; read-out: growth inhibition (GI%)
HCT-116 (colon cancer) = experiment: NCI-60 SRB cytotoxicity screen; format: cell-based; details: Homo sapiens; HCT-116, single dose 10 μM; read-out: growth inhibition (GI%)
ACHN (renal cancer) = experiment: NCI-60 SRB cytotoxicity screen; format: cell-based; details: Homo sapiens, single dose 10 μM, read-out: growth inhibition (GI%)
HL-60(TB) (leukemia) = experiment: NCI-60 SRB cytotoxicity screen; format: cell-based; details: Homo sapiens, single dose 10 μM, read-out: growth inhibition (GI%)
RPMI-8226 (leukemia) = experiment: NCI-60 SRB cytotoxicity screen; format: cell-based; details: Homo sapiens; RPMI-8226, single dose 10 μM; read-out: growth inhibition (GI%)
[5] = system: HOP-62 (non-small cell lung cancer); experiment: NCI-60 SRB cytotoxicity screen; format: cell-based; details: Homo sapiens; HOP-62, single dose 10 μM; read-out: growth inhibition (GI%)
U251 (CNS cancer) = experiment: NCI-60 SRB cytotoxicity screen; format: cell-based; details: Homo sapiens, U-251; U251, single dose 10 μM; read-out: growth inhibition (GI%)
SK-MEL-5 (melanoma) = experiment: NCI-60 SRB cytotoxicity screen; format: cell-based; details: Homo sapiens; SK-MEL-5, single dose 10 μM; read-out: growth inhibition (GI%)
K-562 (leukemia) = experiment: NCI-60 SRB cytotoxicity screen; format: cell-based; details: Homo sapiens; K-652 [sic], single dose 10 μM; read-out: growth inhibition (GI%)
CAKI-1 (renal cancer) = experiment: NCI-60 SRB cytotoxicity screen; format: cell-based; details: Homo sapiens; CAKI-1, single dose 10 μM; read-out: growth inhibition (GI%)
SK-MEL-2 (melanoma) = experiment: NCI-60 SRB cytotoxicity screen; format: cell-based; details: Homo sapiens; SK-MEL-2, single dose 10 μM; read-out: growth inhibition (GI%)
HS 578T (breast cancer) = experiment: NCI-60 SRB cytotoxicity screen; format: cell-based; details: Homo sapiens, single dose 10 μM, read-out: growth inhibition (GI%)
[6] = system: NCI-H460 (non-small cell lung cancer); experiment: NCI-60 SRB cytotoxicity screen; format: cell-based; details: Homo sapiens; NCI-H460, single dose 10 μM; read-out: growth inhibition (GI%)
A498 (renal cancer) = experiment: NCI-60 SRB cytotoxicity screen; format: cell-based; details: Homo sapiens; A498, single dose 10 μM; read-out: growth inhibition (GI%)
[7] = system: NCI-H322M (non-small cell lung cancer); experiment: NCI-60 SRB cytotoxicity screen; format: cell-based; details: Homo sapiens, single dose 10 μM, read-out: growth inhibition (GI%)
786-0 (renal cancer) = experiment: NCI-60 SRB cytotoxicity screen; format: cell-based; details: Homo sapiens; 786-0, single dose 10 μM; read-out: growth inhibition (GI%)
SN12C (renal cancer) = experiment: NCI-60 SRB cytotoxicity screen; format: cell-based; details: Homo sapiens, single dose 10 μM, read-out: growth inhibition (GI%)
OVCAR-8 (ovarian cancer) = experiment: NCI-60 SRB cytotoxicity screen; format: cell-based; details: Homo sapiens; OVCAR-8, single dose 10 μM; read-out: growth inhibition (GI%)
TK-10 (renal cancer) = experiment: NCI-60 SRB cytotoxicity screen; format: cell-based; details: Homo sapiens; TK-10, single dose 10 μM; read-out: growth inhibition (GI%)
UACC-62 (melanoma) = experiment: NCI-60 SRB cytotoxicity screen; format: cell-based; details: Homo sapiens; UACC-62, single dose 10 μM; read-out: growth inhibition (GI%)
COLO 205 (colon cancer) = experiment: NCI-60 SRB cytotoxicity screen; format: cell-based; details: Homo sapiens; COLO 205, single dose 10 μM; read-out: growth inhibition (GI%)
DU-145 (prostate cancer) = experiment: NCI-60 SRB cytotoxicity screen; format: cell-based; details: Homo sapiens; DU-145, single dose 10 μM; read-out: growth inhibition (GI%)
MDA-MB-435 (melanoma) = experiment: NCI-60 SRB cytotoxicity screen; format: cell-based; details: Homo sapiens, MDA-MB-435, read-out: growth inhibition (GI%);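 note: growth inhibition in percent at a single 10 µM dose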
HCC-2998 (colon cancer) = experiment: NCI-60 SRB cytotoxicity screen; format: cell-based; details: Homo sapiens; HCC-2998, single dose 10 μM; read-out: growth inhibition (GI%)
[8] = system: NCI-H23 (non-small cell lung cancer); experiment: NCI-60 SRB cytotoxicity screen; format: cell-based; details: Homo sapiens; NCI-H23, single dose 10 μM; read-out: growth inhibition (GI%)
LOX IMVI (melanoma) = experiment: NCI-60 SRB cytotoxicity screen; format: cell-based; details: Homo sapiens, single dose 10 μM, read-out: growth inhibition (GI%)
SNB-75 (CNS cancer) = experiment: NCI-60 SRB cytotoxicity screen; format: cell-based; details: Homo sapiens, SNB-75, SNB-75, single dose 10 μM; read-out: growth inhibition (GI%)
M14 (melanoma) = experiment: NCI-60 SRB cytotoxicity screen; format: cell-based; details: Homo sapiens; M14, single dose 10 μM; read-out: growth inhibition (GI%)

| Structure (SMILES) | inhibition at 10 µM [1] | inhibition at 10 µM (UO-31 (renal cancer)) | inhibition at 10 µM [2] | inhibition at 10 µM [3] | inhibition at 10 µM [4] | inhibition at 10 µM (KM12 (colon cancer)) | inhibition at 10 µM (PC-3 (prostate cancer)) | inhibition at 10 µM (HCT-116 (colon cancer)) | inhibition at 10 µM (ACHN (renal cancer)) | inhibition at 10 µM (HL-60(TB) (leukemia)) | inhibition at 10 µM (RPMI-8226 (leukemia)) | inhibition at 10 µM [5] | inhibition at 10 µM (U251 (CNS cancer)) | inhibition at 10 µM (SK-MEL-5 (melanoma)) | inhibition at 10 µM (K-562 (leukemia)) | inhibition at 10 µM (CAKI-1 (renal cancer)) | inhibition at 10 µM (SK-MEL-2 (melanoma)) | melting point | inhibition at 10 µM (HS 578T (breast cancer)) | inhibition at 10 µM [6] | also measured |
| --- | --- | --- | --- | --- | --- | --- | --- | --- | --- | --- | --- | --- | --- | --- | --- | --- | --- | --- | --- | --- | --- |
| CCc1cccc2cc(-c3cc(-c4ccc(F)cc4)[nH]c(=O)c3C#N)c(Cl)nc12 [Compound 4d, 4-(2-Chloro-8-ethylquinolin-3-yl)-6-(4-fluorophenyl)-2-oxo-1,2-dihydropyridine-3-carbonitrile] | 14.3% | 27.9% | < 10% | < 10% | < 10% | < 10% | < 10% | < 10% | < 10% | < 10% | 14% | < 10% | < 10% | 16.8% | 27.2% | 19.5% | < 10% | 260 to 262 °C | < 10% | < 10% | inhibition at 10 µM (SK-MEL-28 (melanoma)): < 10%; inhibition at 10 µM (A498 (renal cancer)): < 10%; inhibition at 10 µM [7]: < 10%; inhibition at 10 µM (786-0 (renal cancer)): < 10%; inhibition at 10 µM (SN12C (renal cancer)): < 10%; inhibition at 10 µM (OVCAR-8 (ovarian cancer)): < 10%; inhibition at 10 µM (TK-10 (renal cancer)): < 10%; inhibition at 10 µM (UACC-62 (melanoma)): 16.5%; inhibition at 10 µM (COLO 205 (colon cancer)): < 10%; inhibition at 10 µM (DU-145 (prostate cancer)): < 10%; inhibition at 10 µM (MDA-MB-435 (melanoma)): < 10%; inhibition at 10 µM (HCC-2998 (colon cancer)): < 10%; inhibition at 10 µM [8]: 12%; inhibition at 10 µM (LOX IMVI (melanoma)): 15.3%; inhibition at 10 µM (SNB-75 (CNS cancer)): < 10% |
| CCc1cccc2cc(-c3cc(-c4ccc(OC)c(OC)c4)[nH]c(=S)c3C#N)c(Cl)nc12 [Compound 5b, 4-(2-Chloro-8-ethylquinolin-3-yl)-6-(3,4-dimethoxyphenyl)-2-thioxo-1,2-dihydropyridine-3-carbonitrile] | 20.3% | 23.3% | 47.4% | < 10% | 19.7% | 19.9% | 21.3% | < 10% | 15.7% | < 10% | 29.2% | < 10% | 13.7% | 21% | 28% | 45.8% | < 10% | 280 to 282 °C | 23.1% | < 10% | inhibition at 10 µM (SK-MEL-28 (melanoma)): < 10%; inhibition at 10 µM (M14 (melanoma)): < 10%; inhibition at 10 µM [7]: < 10%; inhibition at 10 µM (786-0 (renal cancer)): 18.7%; inhibition at 10 µM (SN12C (renal cancer)): 21.7%; inhibition at 10 µM (OVCAR-8 (ovarian cancer)): 31.5%; inhibition at 10 µM (TK-10 (renal cancer)): < 10%; inhibition at 10 µM (UACC-62 (melanoma)): 19.1%; inhibition at 10 µM (COLO 205 (colon cancer)): < 10%; inhibition at 10 µM (DU-145 (prostate cancer)): 20.2%; inhibition at 10 µM (MDA-MB-435 (melanoma)): < 10%; inhibition at 10 µM (HCC-2998 (colon cancer)): < 10%; inhibition at 10 µM [8]: 20.3%; inhibition at 10 µM (LOX IMVI (melanoma)): < 10%; inhibition at 10 µM (SNB-75 (CNS cancer)): 10.8% |
| CCc1cccc2cc(-c3cc(-c4ccc(F)cc4)[nH]c(=S)c3C#N)c(Cl)nc12 [Compound 5d, 4-(2-Chloro-8-ethylquinolin-3-yl)-6-(4-fluorophenyl)-2-thioxo-1,2-dihydropyridine-3-carbonitrile] | 25.9% | 40.1% | 11.4% | 11.8% | < 10% | < 10% | 4.57% | < 10% | < 10% | < 10% | 23% | < 10% | < 10% | 15.3% | 29.3% | 31.1% | < 10% | 235 to 237 °C | 18.2% | < 10% | inhibition at 10 µM (SK-MEL-28 (melanoma)): < 10%; inhibition at 10 µM (M14 (melanoma)): < 10%; inhibition at 10 µM (A498 (renal cancer)): < 10%; inhibition at 10 µM [7]: 12.4%; inhibition at 10 µM (786-0 (renal cancer)): < 10%; inhibition at 10 µM (SN12C (renal cancer)): < 10%; inhibition at 10 µM (OVCAR-8 (ovarian cancer)): < 10%; inhibition at 10 µM (TK-10 (renal cancer)): < 10%; inhibition at 10 µM (UACC-62 (melanoma)): 25.7%; inhibition at 10 µM (COLO 205 (colon cancer)): < 10%; inhibition at 10 µM (MDA-MB-435 (melanoma)): < 10%; inhibition at 10 µM (HCC-2998 (colon cancer)): < 10%; inhibition at 10 µM [8]: 16.4%; inhibition at 10 µM (LOX IMVI (melanoma)): 12.4%; inhibition at 10 µM (SNB-75 (CNS cancer)): 39.1% |
| CCc1cccc2cc(C3C=C(c4cc(OC)c(OC)c(OC)c4)NC(=S)N3)c(Cl)nc12 (centres unmarked) [Compound 6c, 4-(2-Chloro-8-ethylquinolin-3-yl)-6-(3,4,5-trimethoxyphenyl)-3,4-dihydropyrimidine-2(1H)-thione] | 58% | 67.7% | 28.3% | 50.3% | 26.3% | 28.1% | 46.2% | 41.2% | 24.4% | 41.5% | 57.6% | 10.5% | 26.6% | 38.2% | 44.6% | 64.1% | 10.2% | 235 to 237 °C | 39.6% | 30% | inhibition at 10 µM (M14 (melanoma)): 30.1%; inhibition at 10 µM (A498 (renal cancer)): 11.6%; inhibition at 10 µM [7]: 18.3%; inhibition at 10 µM (786-0 (renal cancer)): 18.2%; inhibition at 10 µM (SN12C (renal cancer)): 21.7%; inhibition at 10 µM (OVCAR-8 (ovarian cancer)): 12.2%; inhibition at 10 µM (TK-10 (renal cancer)): 12.6%; inhibition at 10 µM (UACC-62 (melanoma)): 35.5%; inhibition at 10 µM (COLO 205 (colon cancer)): 24.4%; inhibition at 10 µM (DU-145 (prostate cancer)): 21.7%; inhibition at 10 µM (MDA-MB-435 (melanoma)): 43.5%; inhibition at 10 µM (HCC-2998 (colon cancer)): 26.1%; inhibition at 10 µM [8]: 25.8%; inhibition at 10 µM (LOX IMVI (melanoma)): 33.3%; inhibition at 10 µM (SNB-75 (CNS cancer)): 23.2% |
